Measurements: patent US8822482B2, “Icotinib hydrochloride, synthesis, crystalline forms, pharmaceutical compositions, and uses thereof” (Beta Pharma, Inc., priority 2008, dated 2014)
Read-outs that look alike come from different tables or passages of the source.

What was measured:
[1] = in vivo
Experimental: In addition, non-clinical pharmacokinetic studies of Icotinib hydrochloride Crystalline Form I in Beagle dogs and rats were conducted.

[2] = tested on: EGFR tyrosine kinase-mediated intracellular protein tyrosine phosphorylation in A431 cells; experiment: Inhibition of EGFR-mediated protein phosphorylation at the cellular level (A431 cells, EGF-stimulated, anti-phosphotyrosine blot); assay type: cell-based; settings: Homo sapiens
Experimental: Methods: The experiment utilized a high EGFR-expressing cell line, A431 (human epidermoid carcinoma). A431 cells in logarithmic growth phase were seeded into 12-well cell culture plates (5×10^5 cells/well); the cells were grown in DMEM cell culture medium (Gibco Company) containing 10% fetal calf serum (FCS) at 37° C. in 5% CO2 for 18 hours. The cells were washed twice with PBS buffer, and DMEM without FCS was then added. After incubating for 18 hours, Icotinib hydrochloride Crystalline Form I in dimethyl sulfoxide (DMSO) was added to individual wells at final concentrations of 0, 10, 50, 250 or 1000 nM. After incubating at 37° C. for 2.5 hours, 100 ng/ml of EGF was added to stimulate the cells for 5 minutes. Cells were then extracted in the presence 1 mM vanadate (inhibits dephosphorylation) to collect total cellular proteins, and proteins were resolved by 10% SDS-PAGE and transferred to nitrocellulose. Following detection of phosphorylated proteins with anti-phosphotyrosine antibodies (PY99 and 4G10, Upstate Biotech) and visualization with a horseradish peroxidase-labeled second antibody (Transduction Laboratories, Inc.) and ECL chemiluminescence (Amersham Corp.), bands were quantified by densitometry. Membranes were then stripped and incubated with anti-EGFR antibodies to compare amounts of EGFR in cells exposed to different concentrations of Icotinib hydrochloride Crystalline Form I as an internal control. Inhibition (%)=(1−kinase activity of the test group/kinase activity of control group)×100%

[3] = Pharmacokinetic study of the different crystalline forms and the free base in rats; assay type: in vivo, Wistar rats; settings: for The area under the concentration-time curve (0-infinity) / The area under the concentration-time curve (0-t): fasted Wistar rats, oral suspension, dose equivalent to 35 mg/kg Icotinib hydrochloride, plasma, hydrochloride
Experimental: Drugs and reagents: Icotinib (free base) and Icotinib hydrochloride crystalline forms I, II, III, and IV were ground to fine particles. The material content (purity) was not less than 99.0%. Sodium carboxymethyl cellulose was medical supply graded. Experimental animals: Wistar rats, male and female, 150-220 g each. Pharmaceutical preparation: Weigh the appropriate amount of each substance and add sodium carboxymethyl cellulose to 0.5%. Prepare a suspension at a final concentration of 3.5 mg/mL in water. Administration and sample collection: Each suspension was administered orally to fasted Wistar rats at a dose equivalent to 35 mg/kg Icotinib hydrochloride in a dose volume of 10 ml/kg. […] After purification, samples were analyzed by high performance liquid chromatography. The chromatographic conditions utilized C18-silane bonded silica as stationary phase, 0.02 mol/L of sodium dihydrogen phosphate in acetonitrile (40:60, using sodium hydroxide solution to adjust pH to 5.0) as the mobile phase and a detection wavelength of 334 nm.

[4] = Pharmacology and toxicology experiments, safety pharmacology; assay type: in vivo, Beagle dogs, mice, and rats
Experimental: Pharmacology and toxicology experiments in Beagle dogs, mice, and rats using Icotinib hydrochloride Crystalline Form I were also conducted.

[5] = tested on: human A431 (human epidermoid carcinoma cell line) xenograft tumor; experiment: Tumor inhibition on human A431 xenograft in nude mice; assay type: in vivo, BALB/C nude mice
Text: This was a preliminary study to compare Icotinib hydrochloride Crystalline Form I with erlotinib hydrochloride on inhibition of human A431 (human epidermoid carcinoma cell line) xenograft tumor.
Methods: The high EGFR-expressing human A431 (human epidermoid carcinoma cell line) cell line was selected for the xenograft study.
Tumor transplantation method: A431 human epidermoid cancer cells were inoculated subcutaneously in the right armpit of BALB/C nude mice to generate tumor nodules. These nodules were harvested, cut into 6 mm^3 blocks for routine inoculation and implanted into each mouse for the study. When tumors reached approximately 20 mm^3 in size (6-7 days), the animals were randomly divided into 4 groups of 6-9 animals/each group and body weights were recorded. The groups consisted of a control group (no drug treatment), an erlotinib hydrochloride treatment group (200 mg/kg) and high and low dose Icotinib hydrochloride Crystalline Form I treatment groups (200 and 50 mg/kg). Drugs were administered by oral gavage once daily; dosing frequency depended on the individual case for tumor growth. Tumor volume [tumor volume (V)=tumor size (L)×short diameter of tumor (S)^2/2] was measured using calipers once every 3 days. The animals were sacrificed 24-hour after the last drug administration and weighed. The tumor was removed and weighed to accurately calculate the tumor size. All group data was analyzed using the t test. If the p value was <0.05, it was considered to be statistically significant. Efficacy determination: tumor inhibition rate=[1−treatment group mean tumor weight (T)/control group mean tumor weight (C)]×100%

[6] = Phase I clinical safety study, single doses of tablets; assay type: in vivo, human; settings: 25-1025 mg single doses, 76 subjects
[7] = biological target: EGFR tyrosine kinase (Homo sapiens, UniProt P00533); experiment: Inhibition of EGFR tyrosine kinase, 32P-ATP Crk substrate phosphorylation, polyacrylamide gel electrophoresis; assay type: biochemical; settings: for inhibition at 0.0625 µM: 62.5 nM
Experimental: Method: This method is based on the ability of protein kinases to catalyze substrate phosphorylation; radioisotope ^32P-labeled ATP (^32P-γ-ATP) is utilized in the reaction system to radioactively tag the protein substrate with ^32P. After separation and isolation of the protein substrate by polyacrylamide gel electrophoresis, the intensity of the radioactive ^32P-labeled protein substrate is recorded.
The kinase reaction buffer included 1 μM of non-isotope labeled-ATP. […] The mixture was incubated on ice for 10 min, and 1 μCi of ^32P-γ-ATP was then added. After incubation at 30° C. for 20 min, SDS (sodium dodecyl sulfate) sample buffer was added, and the mixture was boiled in a 100° C. water bath for 4 min. The samples were separated by 10% SDS-PAGE. After vacuum drying of the polyacrylamide gel, the intensity of radioactively labeled proteins were measured and recorded using a Phosphorimager (Molecular Dynamics Inc.). The signal was quantitatively analyzed utilizing ImageQuant software. The degree of Crk substrate phosphorylation was used to estimate the activity of the kinase. Inhibition (%)=(1−kinase activity of the test group/kinase activity of control group)×100%

Chain of EGFR tyrosine kinase (P00533 25-1210): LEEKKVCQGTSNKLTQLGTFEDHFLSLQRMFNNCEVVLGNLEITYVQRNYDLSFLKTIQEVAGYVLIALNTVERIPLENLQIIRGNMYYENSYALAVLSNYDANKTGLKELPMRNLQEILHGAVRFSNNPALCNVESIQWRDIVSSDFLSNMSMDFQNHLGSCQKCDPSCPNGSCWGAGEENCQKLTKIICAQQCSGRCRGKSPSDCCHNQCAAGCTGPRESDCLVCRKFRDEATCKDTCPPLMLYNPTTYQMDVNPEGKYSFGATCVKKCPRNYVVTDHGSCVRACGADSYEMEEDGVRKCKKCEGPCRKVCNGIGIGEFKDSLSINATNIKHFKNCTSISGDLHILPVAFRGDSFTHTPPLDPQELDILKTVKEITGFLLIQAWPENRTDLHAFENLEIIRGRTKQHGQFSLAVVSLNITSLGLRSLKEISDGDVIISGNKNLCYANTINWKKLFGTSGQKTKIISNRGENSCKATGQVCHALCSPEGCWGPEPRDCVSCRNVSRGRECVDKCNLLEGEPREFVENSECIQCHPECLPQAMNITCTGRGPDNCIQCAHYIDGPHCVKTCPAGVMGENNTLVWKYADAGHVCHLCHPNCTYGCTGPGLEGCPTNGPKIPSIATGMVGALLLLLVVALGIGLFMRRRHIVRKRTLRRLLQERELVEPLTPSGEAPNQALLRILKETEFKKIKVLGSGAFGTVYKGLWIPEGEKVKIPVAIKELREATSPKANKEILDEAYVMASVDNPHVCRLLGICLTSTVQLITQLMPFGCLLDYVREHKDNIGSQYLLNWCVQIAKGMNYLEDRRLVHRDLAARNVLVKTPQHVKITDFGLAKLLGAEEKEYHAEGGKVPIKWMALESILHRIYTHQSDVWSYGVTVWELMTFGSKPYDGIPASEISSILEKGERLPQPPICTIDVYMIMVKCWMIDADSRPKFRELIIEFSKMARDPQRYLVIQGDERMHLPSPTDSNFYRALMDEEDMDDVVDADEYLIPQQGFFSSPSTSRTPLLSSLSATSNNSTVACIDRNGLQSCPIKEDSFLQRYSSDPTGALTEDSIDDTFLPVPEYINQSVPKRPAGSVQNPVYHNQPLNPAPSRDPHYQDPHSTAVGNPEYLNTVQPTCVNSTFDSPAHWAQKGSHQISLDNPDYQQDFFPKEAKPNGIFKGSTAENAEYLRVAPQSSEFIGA

C#Cc1cccc(Nc2ncnc3cc4c(cc23)OCCOCCOCCO4)c1.Cl [4-[(3-ethynyl-phenyl)amino]-6,7-benzo-12-crown-quinazoline hydrochloride]
route of elimination [1]: mainly through fecal excretion
tissue distribution [1]: widely distributed to various tissues, but was low in brain tissue
Tmax ([1]; Beagle (dogs), rat, dog, po): ~1 h
bioavailability ([1]; Beagle (dogs), rat, dog, po): 27 to 62%
EC50 ([2]; A-431, read-out: median effective concentration (EC50)): ~50 nM
inhibition at 0.01 µM ([2]; A-431, A431 cells, 10 nM, read-out: inhibition of EGF-induced intracellular protein tyrosine phosphorylation): 5.4%
inhibition at 0.05 µM ([2]; A-431, A431 cells, 50 nM, read-out: inhibition of EGF-induced intracellular protein tyrosine phosphorylation): 52.9%
inhibition at 0.25 µM ([2]; A-431, A431 cells, 250 nM, read-out: inhibition of EGF-induced intracellular protein tyrosine phosphorylation): 61.9%
inhibition at 1 µM ([2]; A-431, A431 cells, 1000 nM, read-out: inhibition of EGF-induced intracellular protein tyrosine phosphorylation): 63.7%
area under the concentration-time curve (0-t) and (0-infinity) relative to the free base form ([3]; Wistar rats, oral, 35 mg/kg equivalent): approximately 3 times
The area under the concentration-time curve (0-infinity) ([3]; listed as Crystalline Form I): 93.73
The area under the concentration-time curve (0-t) ([3]; listed as Crystalline Form I): 91.80
The area under the concentration-time curve (0-infinity) ([3]; listed as Crystalline Form II): 90.77
The area under the concentration-time curve (0-t) ([3]; listed as Crystalline Form II): 88.28
The area under the concentration-time curve (0-infinity) ([3]; listed as Crystalline Form III): 90.26
The area under the concentration-time curve (0-t) ([3]; listed as Crystalline Form III): 89.23
The area under the concentration-time curve (0-infinity) ([3]; listed as Crystalline Form IV): 90.23
The area under the concentration-time curve (0-t) ([3]; listed as Crystalline Form IV): 86.29
bone marrow toxicity ([4]; Beagle dogs, mice, and rats): no bone marrow toxicity
liver toxicity ([4]; Beagle dogs, mice, and rats): reversible liver toxicity
oral toxicity ([4]; Beagle dogs, mice, and rats): low oral toxicity
teratogenic, mutagenic and reproductive toxicity ([4]; additional toxicity testing): no teratogenic, mutagenic and reproductive toxicity
effect on autonomic nervous system activity or the central nervous system ([4]; safety pharmacological test): no effect
effect on respiration, blood pressure and circulatory function ([4]; safety pharmacological test): no effect
body weight and appearance at experiment termination ([5]; A431 xenograft nude mice): gained weight
tumor inhibition rate ([5]; A431 xenograft, 200 mg/kg oral gavage once daily (later reduced to 100 mg/kg)): 64.6%
toxic effects ([5]; at either dose (200 and 50 mg/kg)): No toxic effects were observed
anti-tumor effect (in words) ([5]; given orally, A431 xenograft mouse model): significant anti-tumor effects
clinical safety of single doses [6]: safe
inhibition at 0.0005 µM ([7]; 0.5 nM, read-out: inhibition rate of EGFR kinase activity): 20.5%
inhibition at 0.0025 µM ([7]; 2.5 nM, read-out: inhibition rate of EGFR kinase activity): 36.6%
inhibition at 0.0125 µM ([7]; 12.5 nM, read-out: inhibition rate of EGFR kinase activity): 63%
inhibition at 0.0625 µM ([7]; parallel comparison with Arg kinase, read-out: inhibition of EGFR kinase): 97%
inhibition at 0.0625 µM ([7]; read-out: inhibition rate of EGFR kinase activity): 87.6%
IC50 ([7]; from the dose-response curve, read-out: IC50 to inhibit EGFR kinase activity): 5 nM
